According to paper PMC8274517, “Diaryl azo derivatives as anti-diabetic and antimicrobial agents: synthesis, in vitro, kinetic and docking studies” (Journal of Enzyme Inhibition and Medicinal Chemistry, 2021):
Values after ≈ are worked out from the molar mass of the structure shown.

How the values were obtained:
[1] = system: α-glucosidase; experiment: In vitro α-glucosidase inhibition assay (pNPG substrate); format: biochemical, Saccharomyces Cerevisiae; conditions: for IC50: means ± SEM of triplicate
Experimental: The α-glucosidase inhibition assay was performed as described previously. In summary, the stock solution of the enzyme from Saccharomyces Cerevisiae (0.2 U/mL) was prepared in 0.05 M sodium phosphate buffer pH 6.8. […] After incubation, 10 µL of the substrate, p-nitrophenyl α-D-glucopyranoside (pNPG, 5 mM solution in 0.05 M phosphate buffer) was added to the aboveprepared mixture and incubated again under the same experimental conditions. The reaction was stopped with the addition of 0.1 M Na2CO3 and OD405 was taken by a 96-well ELISA reader. The experiment was performed in triplicate.

[2] = system: P. aeruginosa (DS); experiment: Antibacterial activity, minimum inhibitory concentration; format: cell-based; design: key: R: resistant; S: sensitive
Experimental: (§1) The prepared azo derivatives were screened for their antibacterial activity against six bacterial strains obtained from hospital isolates i.e. gram positive (S. aureus, S. aureus (DR)) and gram-negative (E. coli, P. aeruginosa, P. aeruginosa (DR), P. vulgaris). All the strains were confirmed by biochemical identification and drug susceptibility methods. The antibacterial evaluation was done by agar disc diffusion method[39]^,[40] and MIC was determined. In summary, a 48-h old inoculum having ∼0.48 OD600, of the above-mentioned bacterial strains was spread on the solidified trypticase soy agar media and Whatman no. 1 filter paper discs (5 mm in diameter) soaked with the title compounds (10 µL/disc of 10 mg/mL) were placed on the plates. Ampicillin and moxifloxacin were used as positive controls and DMSO as negative control respectively.

[3] = system: S. aureus (DS); experiment: as above; format: cell-based; design: key: R: resistant; S: sensitive
Experimental: as §1

[4] = system: P. vulgaris; experiment: as above; format: cell-based; design: key: R: resistant; S: sensitive
Experimental: as §1

[5] = system: E. coli; experiment: as above; format: cell-based; design: key: R: resistant; S: sensitive
Experimental: as §1

[6] = system: S. aureus (DR); experiment: as above; format: cell-based; design: key: R: resistant; S: sensitive
Experimental: as §1

[7] = system: P. aeruginosa (DR); experiment: as above; format: cell-based; design: key: R: resistant; S: sensitive
Experimental: as §1

[8] = system: screened pathogens (S. aureus, P. aeruginosa, E. coli and P. vulgaris); experiment: Antibacterial activity, average MIC over screened pathogens; format: cell-based
Experimental: as §1, with “All the strains were confirmed by biochemical identification and drug susceptibility methods.” left out, “plates.” for “plates. Ampicillin and moxifloxacin were used as positive controls and DMSO as negative control respectively.”

Compound | % Inhibition ([1]; 15.62 µg/mL) | % Inhibition ([1]; 31.2 µg/mL) | % Inhibition ([1]; 125 µg/mL) | % Inhibition ([1]; 250 µg/mL) | Minimum inhibitory concentration: sensitive/resistant ([2]; 125 µg/200 µL) | Minimum inhibitory concentration: sensitive/resistant ([2]; 250 µg/200 µL) | Minimum inhibitory concentration: sensitive/resistant ([3]; 125 µg/200 µL) | Minimum inhibitory concentration: sensitive/resistant ([3]; 250 µg/200 µL) | Minimum inhibitory concentration: sensitive/resistant ([4]; 125 µg/200 µL) | Minimum inhibitory concentration: sensitive/resistant ([4]; 250 µg/200 µL) | Minimum inhibitory concentration: sensitive/resistant ([5]; 125 µg/200 µL) | Minimum inhibitory concentration: sensitive/resistant ([5]; 250 µg/200 µL) | Minimum inhibitory concentration: sensitive/resistant ([6]; 125 µg/200 µL) | Minimum inhibitory concentration: sensitive/resistant ([6]; 250 µg/200 µL) | Minimum inhibitory concentration: sensitive/resistant ([7]; 125 µg/200 µL) | Minimum inhibitory concentration: sensitive/resistant ([7]; 250 µg/200 µL) | MIC (average value) [8] | IC50 [1]
C[C@H]1O[C@H](O[C@H]2[C@H](O)[C@@H](O)[C@@H](O[C@H]3[C@H](O)[C@@H](O)C(O)O[C@@H]3CO)O[C@@H]2CO)[C@H](O)[C@@H](O)[C@@H]1N[C@H]1C=C(CO)[C@@H](O)[C@H](O)[C@H]1O (some centres unmarked) [Acarbose, reference compound] | 40% | 62% | 85% | 92% |  |  |  |  |  |  |  |  |  |  |  |  |  | 
(E)-4-(p-tolyldiazenyl)naphthalen-1-ol [TR-4] | 7% | 13% | 35% | 43% | S | S | S | S | S | S | R | R | S | S | S | S | 125 µg/200 µL | 
O=[N+]([O-])c1ccc(/N=N/c2ccc(O)c3ccccc23)cc1 [TR-2, (E)-4-((4-nitrophenyl)diazenyl)naphthalen-1-ol] | 16% | 30% | 55% | 60% | R | S | R | R | R | R | R | S | S | S | R | R |  | 110.2 ± 7.8 µg/mL (≈ 376 µM)
(E)-4-(p-tolyldiazenyl)benzene-1,3-diol [TR-6] | 22% | 38% | 63% | 87% | S | S | S | S | S | S | R | S | S | S | R | R | 125 µg/200 µL | 53.7 ± 3.2 µg/mL
CC1(C)S[C@@H]2[C@H](NC(=O)[C@H](N)c3ccccc3)C(=O)N2[C@H]1C(=O)O [Ampicillin, reference compound] |  |  |  |  | S | S | S | S | S | S | S | S |  |  |  |  | 62.5 µg/200 µL | 
COc1c(N2C[C@@H]3CCCN[C@@H]3C2)c(F)cc2c(=O)c(C(=O)O)cn(C3CC3)c12 [Moxifloxacin, reference compound] |  |  |  |  |  |  |  |  |  |  |  |  | S | S | S | S |  | 
4-((2-chloropyridin-3-yl)diazenyl)naphthalen-2-ol [TR-9] | 22% | 39% | 63% | 78% | R | S | R | R | R | R | R | R | S | S | R | R |  | 54.4 ± 3.3 µg/mL
